According to PMC12217528, “Structural basis of topoisomerase targeting by delafloxacin” (Nature Communications, 2025):

What was measured:
Assay type in all cases: biochemical
[1] = target: T1, DNA gyrase (GyrA subunit) (Streptococcus pneumoniae, UniProt P0A4M0+Q8DPM2); experiment: supercoiled pBR322 DNA cleavage assay (cleavage complex stabilisation)
T1 construct: full-length GyrA reconstituted with GyrB; with GyrB, with DNA

[2] = target: T2, topoisomerase IV (ParC subunit, ParE30-ParC55 fusion) (Streptococcus pneumoniae, UniProt P72525+Q59961); experiment: X-ray co-crystal structures at […] and […] Å; DNA cleavage assay with purified enzyme; design: ParE30-ParC55 fusion protein (ParE TOPRIM domain + ParC breakage-reunion domain), C-terminal His6; with ParE (ParE30 TOPRIM domain), with 18-mer V-site or E-site gate DNA
Target sequence in this assay (Q59961 404-647): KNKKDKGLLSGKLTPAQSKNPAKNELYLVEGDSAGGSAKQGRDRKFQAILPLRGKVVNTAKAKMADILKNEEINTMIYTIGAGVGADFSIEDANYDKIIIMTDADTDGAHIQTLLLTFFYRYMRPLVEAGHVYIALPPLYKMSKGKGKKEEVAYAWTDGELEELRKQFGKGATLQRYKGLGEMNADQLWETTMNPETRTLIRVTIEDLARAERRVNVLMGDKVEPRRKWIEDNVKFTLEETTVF
Target sequence in this assay (P72525 1-490): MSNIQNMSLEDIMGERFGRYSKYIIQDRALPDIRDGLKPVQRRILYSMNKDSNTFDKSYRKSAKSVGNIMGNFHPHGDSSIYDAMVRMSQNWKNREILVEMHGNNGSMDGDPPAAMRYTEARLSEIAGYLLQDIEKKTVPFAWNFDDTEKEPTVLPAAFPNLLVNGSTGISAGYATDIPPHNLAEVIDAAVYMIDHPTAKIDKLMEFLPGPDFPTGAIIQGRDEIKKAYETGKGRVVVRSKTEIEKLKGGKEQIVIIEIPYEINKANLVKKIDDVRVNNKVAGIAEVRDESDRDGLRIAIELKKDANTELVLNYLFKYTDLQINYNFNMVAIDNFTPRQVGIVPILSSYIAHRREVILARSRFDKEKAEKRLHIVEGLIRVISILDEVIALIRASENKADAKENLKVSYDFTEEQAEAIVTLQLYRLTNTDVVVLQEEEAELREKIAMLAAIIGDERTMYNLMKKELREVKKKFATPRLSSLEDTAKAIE

[3] = target: T2, topoisomerase IV (ParC subunit, ParE30-ParC55 fusion); experiment: supercoiled pBR322 DNA cleavage assay (cleavage complex stabilisation); design: ParE30-ParC55 fusion protein; with ParE (ParE30 TOPRIM domain), with DNA
Target sequence in this assay (P72525 1-490): as above
Target sequence in this assay (Q59961 404-647): as the sequence (Q59961 404-647) above

T1 sequence (Q8DPM2 whole entry): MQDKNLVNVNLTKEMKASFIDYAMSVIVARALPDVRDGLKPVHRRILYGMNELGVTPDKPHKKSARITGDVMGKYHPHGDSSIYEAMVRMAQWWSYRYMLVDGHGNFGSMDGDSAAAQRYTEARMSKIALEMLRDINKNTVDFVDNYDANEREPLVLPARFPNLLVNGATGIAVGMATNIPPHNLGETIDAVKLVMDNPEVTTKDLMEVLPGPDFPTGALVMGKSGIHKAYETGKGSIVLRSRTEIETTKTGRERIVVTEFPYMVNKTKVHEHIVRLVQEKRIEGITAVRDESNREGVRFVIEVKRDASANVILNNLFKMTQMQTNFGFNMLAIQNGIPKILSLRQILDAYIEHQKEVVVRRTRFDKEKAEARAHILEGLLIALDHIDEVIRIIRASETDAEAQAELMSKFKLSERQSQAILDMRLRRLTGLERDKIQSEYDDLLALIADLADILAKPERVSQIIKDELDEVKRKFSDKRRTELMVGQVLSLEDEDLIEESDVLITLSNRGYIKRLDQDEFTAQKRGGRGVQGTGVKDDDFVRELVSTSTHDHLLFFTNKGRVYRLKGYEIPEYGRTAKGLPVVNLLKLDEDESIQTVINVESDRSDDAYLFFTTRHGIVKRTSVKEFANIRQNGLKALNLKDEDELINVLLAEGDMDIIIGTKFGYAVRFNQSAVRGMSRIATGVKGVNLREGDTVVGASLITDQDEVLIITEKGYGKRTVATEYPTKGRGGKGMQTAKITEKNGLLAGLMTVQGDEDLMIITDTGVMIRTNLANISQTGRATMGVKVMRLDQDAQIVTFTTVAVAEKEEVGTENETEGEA
T1 sequence (P0A4M0 whole entry): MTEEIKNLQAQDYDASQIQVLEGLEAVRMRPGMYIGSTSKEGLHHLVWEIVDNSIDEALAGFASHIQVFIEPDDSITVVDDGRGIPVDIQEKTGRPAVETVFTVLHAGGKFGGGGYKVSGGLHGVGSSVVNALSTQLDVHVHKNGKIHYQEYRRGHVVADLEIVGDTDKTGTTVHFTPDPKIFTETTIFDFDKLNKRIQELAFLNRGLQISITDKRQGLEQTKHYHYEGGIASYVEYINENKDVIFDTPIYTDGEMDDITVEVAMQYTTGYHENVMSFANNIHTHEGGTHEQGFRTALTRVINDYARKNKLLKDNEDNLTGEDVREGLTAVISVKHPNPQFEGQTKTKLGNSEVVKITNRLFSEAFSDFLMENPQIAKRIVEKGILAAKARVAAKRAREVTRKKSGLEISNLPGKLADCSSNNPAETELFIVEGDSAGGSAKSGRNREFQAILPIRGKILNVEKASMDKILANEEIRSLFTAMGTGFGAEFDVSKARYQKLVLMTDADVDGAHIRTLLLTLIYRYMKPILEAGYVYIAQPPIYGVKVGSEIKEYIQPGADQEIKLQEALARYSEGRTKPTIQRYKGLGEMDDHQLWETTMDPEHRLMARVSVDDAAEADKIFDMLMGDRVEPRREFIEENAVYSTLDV

| SMILES | supercoiled pBR322 DNA cleavage assay (cleavage complex stabilisation) [1] | X-ray co-crystal structures at 2.0 and 2.4 Å; DNA cleavage assay with purified e [2] [µM] | supercoiled pBR322 DNA cleavage assay (cleavage complex stabilisation) [3] [µM] |
| --- | --- | --- | --- |
| Nc1nc(-n2cc(C(=O)O)c(=O)c3cc(F)c(N4CC(O)C4)c(Cl)c32)c(F)cc1F [Delafloxacin] | 2.5–5.0 µM | 0.12 |  |
| C[C@H]1COc2c(N3CCN(C)CC3)c(F)cc3c(=O)c(C(=O)O)cn1c23 [Levofloxacin] |  |  | 2.5 |
